Activity calls are given as the source filed them. The calls are words filed in the database; no cut-off is given here.
Tests used:
[1] = Cytostatic activity against human CEM/DNR cells after 3 days by MTT assay; format: functional, cell-based; settings: 72 h
[2] = Cytostatic activity against human K562-TAX cells after 3 days by MTT assay; format: functional, cell-based; settings: 72 h
[3] = system: HepG2; test: Cytostatic activity against human HepG2 cells assessed as cell viability after 6 days by XTT assay; format: functional, cell-based; settings: HepG2, 144 h
[4] = system: MRC5; test: Cytostatic activity against human MRC5 cells after 3 days by MTT assay; format: ADME, cell-based; settings: MRC5, 72 h
[5] = system: Hepatitis C virus; test: Antiviral activity against HCV1B; format: functional, organism-based; settings: Hepacivirus hominis; genotype 1b
[6] = system: HeLa S3; test: Cytostatic activity against human HeLaS3 cells assessed as cell viability after 6 days by XTT assay; format: functional, cell-based; settings: HeLa S3, 144 h
[7] = system: K562; test: Cytostatic activity against human K562 cells after 3 days by MTT assay; format: functional, cell-based; settings: K562, 72 h
[8] = system: BJ; test: Cytostatic activity against human BJ cells after 3 days by MTT assay; format: ADME, cell-based; settings: 72 h
[9] = Cytostatic activity against human HCT116 cells after 3 days by MTT assay; format: functional, cell-based; settings: HCT-116, 72 h
[10] = Antiviral activity against RSV; format: functional, organism-based
[11] = system: Hepatitis C virus; test: Antiviral activity against HCV2A; format: functional, organism-based; settings: Hepacivirus hominis; genotype 2a
[12] = system: A549; test: Cytostatic activity against human A549 cells after 3 days by MTT assay; format: functional, cell-based; settings: A549, 72 h
[13] = system: Candida; test: Antifungal activity against Candida sp.; format: functional, organism-based
[14] = Cytostatic activity against p53 deficient human HCT116 cells after 3 days by MTT assay; format: functional, cell-based; settings: HCT-116, 72 h
[15] = system: HL-60; test: Cytostatic activity against human HL60 cells assessed as cell viability after 6 days by XTT assay; format: functional, cell-based; settings: HL-60, 144 h
[16] = system: CCRF-CEM; test: Cytostatic activity against human CCRF-CEM cells after 3 days by MTT assay; format: functional, cell-based; settings: 72 h

SMILES | IC50 [3] [µM] | IC50 [6] [µM] | IC50 [7] [µM] | IC50 [12] [µM] | IC50 [15] [µM] | IC50 [16] [µM] | IC50 [1] [µM] | IC50 [2] [µM] | IC50 [4] [µM] | Activity [5] | IC50 [8] [µM] | IC50 [9] [µM] | Activity [10] | Activity [11] | Activity [13] | IC50 [14] [µM]
COc1ncnc2[nH]cc(Sc3cccs3)c12 | > 25 | 23.9 | > 50 | 21.5 | > 25 | 18.2 | > 50 | 44 | 148 | inactive | 123 | 17.2 | inactive | inactive | inactive | > 50
c1csc(Sc2c[nH]c3ncnc(-c4cccs4)c23)c1 | > 25 | > 25 | 5.14 | 16.2 | 21.1 | 10.6 | 17.7 | 21.7 | 54.5 | inactive | 23.4 | 13 | inactive | inactive | inactive | 5.06
Cc1ncnc2[nH]cc(Sc3cccs3)c12 | > 25 | > 25 | 14 | > 50 | > 25 | > 50 | > 50 | 64.6 | 136 | inactive | > 150 | 38.1 | inactive | inactive | inactive | 29.1
CNc1ncnc2[nH]cc(Sc3cccs3)c12 | > 25 | 17.6 | 4.95 | 28.6 | 13.5 | 14.7 | 26.2 | 21 | 148 | inactive | 132 | 19 | inactive | inactive | inactive | 45.3
CN(C)c1ncnc2[nH]cc(Sc3cccs3)c12 | > 25 | > 25 | 3.83 | 19.8 | > 25 | 14.6 | 35.2 | 22.1 | > 150 | inactive | 145 | 11 | inactive | inactive | inactive | 27.5

Continued, in another order:

IC50 [3] [µM] | IC50 [6] [µM] | IC50 [7] [µM] | IC50 [12] [µM] | IC50 [15] [µM] | IC50 [16] [µM] | SMILES | IC50 [1] [µM] | IC50 [2] [µM] | IC50 [4] [µM] | Activity [5] | IC50 [8] [µM] | IC50 [9] [µM] | Activity [10] | Activity [11] | Activity [13] | IC50 [14] [µM]
> 25 | 17.9 | 17.9 | 22.8 | 13.9 | 16.7 | Nc1ncnc2[nH]cc(Sc3cccs3)c12 | 20.3 | 17.9 | 136 | inactive | > 150 | 22.8 | inactive | inactive | inactive | > 50
> 25 | > 25 | 23.1 | 22.9 | > 25 | 34 | Nc1ncnc2c1c(Sc1ccccc1)cn2[C@@H]1O[C@H](CO)[C@@H](O)[C@H]1O | > 50 | 29.6 | 67.7 | inactive | 67.9 | 20.8 | inactive | inactive | inactive | 22.4
> 25 | > 25 | 23.4 | 43.8 | > 25 | 64.7 | Nc1ncnc2c1c(Sc1cccs1)cn2[C@@H]1O[C@H](CO)[C@@H](O)[C@H]1O | > 100 | 55.8 | 138 | inactive | 93.6 | 36.7 | inactive | inactive | inactive | 23.2
> 25 | 8.49 | 4.26 | 11.4 | 7.63 | 7.73 | c1coc(-c2ncnc3[nH]cc(Sc4cccs4)c23)c1 | 20.8 | 18.9 | 32.9 | inactive | 22.1 | 6.75 | inactive | inactive | inactive | 19.5

Source: ChEMBL document CHEMBL3734714, “Synthesis and cytostatic activity of 7-arylsulfanyl-7-deazapurine bases and ribonucleosides” (Medchemcomm, 2015)
